Target: T1, P2Y purinoceptor 14 (Homo sapiens, UniProt Q15391)
T1 sequence (Q15391 whole entry): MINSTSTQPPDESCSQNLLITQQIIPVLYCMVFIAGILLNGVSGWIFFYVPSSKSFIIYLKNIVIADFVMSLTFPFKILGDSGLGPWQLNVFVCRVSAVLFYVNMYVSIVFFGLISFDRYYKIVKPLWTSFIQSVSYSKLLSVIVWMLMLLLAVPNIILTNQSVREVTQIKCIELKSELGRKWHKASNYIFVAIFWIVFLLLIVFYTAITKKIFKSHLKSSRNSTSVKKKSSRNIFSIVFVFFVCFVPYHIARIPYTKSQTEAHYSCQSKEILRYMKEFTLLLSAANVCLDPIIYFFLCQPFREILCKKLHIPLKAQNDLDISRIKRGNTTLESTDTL
Test: Agonist activity at human P2Y14 expressed in COS7 cells assessed as stimulation of PLC-mediated [3H]inositol hydrolysis
Format: functional, cell-based, COS-7

Structure (SMILES)	EC50	EC50 (cos-7)
O=C(O)[C@H]1O[C@H](OP(=O)(O)OP(=O)(O)OC[C@H]2O[C@@H](n3ccc(=O)[nH]c3=O)[C@H](O)[C@@H]2O)[C@H](O)[C@@H](O)[C@@H]1O	370 nM (agonist)	–
O=c1ccn([C@@H]2O[C@H](COP(=O)(O)OP(=O)(O)O[C@H]3[C@H](O)[C@@H](O)[C@H](O)[C@@H](O)[C@@H]3O)[C@@H](O)[C@H]2O)c(=O)[nH]1	1880 nM (agonist)	–
O=C(O)[C@H]1O[C@H](OP(=O)(O)OP(=O)(O)OC[C@H]2O[C@@H](n3ccc(=O)[nH]c3=S)[C@H](O)[C@@H]2O)[C@H](O)[C@@H](O)[C@@H]1O	420 nM (agonist)	–
O=c1ccn([C@@H]2O[C@H](COP(=O)(O)OP(=O)(O)OC[C@@]3(O)O[C@H](CO)[C@@H](O)[C@@H]3O)[C@@H](O)[C@H]2O)c(=O)[nH]1	880 nM (agonist)	–

Results, then the compound that gave them:

EC50	EC50 (cos-7)	Structure (SMILES)
350 nM (agonist)	–	O=c1[nH]c(=S)ccn1[C@@H]1O[C@H](COP(=O)(O)OP(=O)(O)O[C@H]2O[C@H](CO)[C@@H](O)[C@H](O)[C@H]2O)[C@@H](O)[C@H]1O
–	810 nM (agonist)	CC(=O)N[C@@H]1[C@H](OP(=O)(O)OP(=O)(O)OC[C@H]2O[C@@H](n3ccc(=O)[nH]c3=O)[C@H](O)[C@@H]2O)O[C@@H](CO)[C@H](O)[C@H]1O (stereo in doubt)
49 nM (agonist)	–	O=c1ccn([C@@H]2O[C@H](COP(=O)(O)OP(=O)(O)O[C@H]3O[C@H](CO)[C@@H](O)[C@H](O)[C@H]3O)[C@@H](O)[C@H]2O)c(=S)[nH]1
> 10000 nM	–	CSc1ccn([C@@H]2O[C@H](COP(=O)(O)OP(=O)(O)O[C@H]3O[C@H](CO)[C@@H](O)[C@H](O)[C@H]3O)[C@@H](O)[C@H]2O)c(=O)n1

Source: ChEMBL document CHEMBL1147137, “Structure-activity relationship of uridine 5'-diphosphoglucose analogues as agonists of the human P2Y14 receptor” (J Med Chem, 2007)
